According to US4720543A, “1a-7-substituted derivatives of mitomycin and uses thereof” (priority 1985, dated 1988):

Tests used:
Klebsiella Pneumonia = experiment: antibiotic activity, bacterial growth inhibition in culture; assay type: cell-based
Description: (§1) Bacteria were grown in a standard growth culture at pH 7.2. After the cultures were incubated at 37° C. overnight and diluted into fresh medium, controls and the test antibiotics dissolved in 0.3% hydroxy propylcellulose (HPC) were added at various concentrations and then reincubated overnight. The measure of antibiotic activity was determined by the amount of bacterial growth inhibition as shown by measurement of the optical density at 660 nm.

Listeria Sp. = experiment: as above; assay type: cell-based
Description: as §1

Pseudomonas Sp. = experiment: as above; assay type: cell-based
Description: as §1

Staphylococcus Sp. = experiment: as above; assay type: cell-based
Description: as §1

W3100 (E. coli) = experiment: as above; assay type: cell-based
Description: as §1

WP2s (E. coli) = experiment: as above; assay type: cell-based
Description: as §1

P388 leukemia = experiment: murine P388 leukemia antitumor activity; assay type: in vivo; conditions: approximate LD10 dose (M-TAG 250 mg/kg; mitomycin C 4 mg/kg), day one
Description: The murine P388 leukemia system, maintained intraperitoneally in female DBA/2 mice, was used to evaluate antitumor activity.
The P388 antileukemic activity of the test compound (M-TAG) was assessed by mean survival days, percentage increased life span or %ILS, and number of survivors after 45 days. The %ILS was calculated as follows:
%ILS=(T-C)/C×100 where T is the mean survival days of the treated mice and C is the mean survival days of the untreated mice

Ehrlich ascites = experiment: murine Ehrlich ascites antitumor activity; assay type: in vivo
Description: The antitumor activity of M-TAG for the murine Ehrlich ascities tumor was also determined. Ehrlich ascites was maintained i.p. in female BALB/C mice. For antitumor studies, 1×10^7 Ehrlich ascites cells (in 0.10 ml) were implanted i.p. in male BD2F1 mice. Drug was administered i.p. (single LD10 dose) one day after tumor implantation.

[1] = system: peripheral leukocyte (WBC); experiment: effects on peripheral leukocyte (WBC) count; assay type: in vivo, mice
Description: Comparative studies were performed with M-TAG and mitomycin C. Drug was dissolved in absolute ethanol, and then adjusted to a final concentration of 8% ethanol-92% sterile water. Blood samples obtained were diluted in 9.98 ml of Isoton (a neutral isotonic buffer solution) and counted in a Coulter counter after lysis with Zapoglobin (an enzyme solution which lyses red blood cells but not white blood cells). WBC counts are expressed as a percentage of values from control mice receiving drug vehicle only.

in vitro = conditions: human, bone marrow cells
Description: The human bone marrow CFU-C assay measures human bone marrow cells committed to granulocyte-macrophage differentiation. This in vitro assay serves as a model for predicting the relative toxicity of an experimental drug on the granulocytic series of the bone marrow. […] Both drugs were dissolved in 0.5% DMSO, and nucleated human bone marrow cells were exposed in vitro (for 90 minutes at 37° C.) to varying concentrations of each drug. The cells were then plated in triplicate in 3% agar for the CFU-C assay, using GCT, (Giant Cell Tumor) extract (Gibco, Grand Island, N.Y.) as colony-stimulating factor.

bone marrow = conditions: mice, rats, cats, dogs, and rhesus monkeys; cited from earlier work
B16 melanoma = experiment: murine B16 melanoma antitumor activity; conditions: M-TAG 250 mg/kg or mitomycin C 4 mg/kg, i.p. day 1
Description: Activity against the murine B16 melanoma is currently being determined.

[2] = toxic single doses in normal CD2F1 mice
Description: Drug was administered intraperitoneally (i.p.) in a volume of 0.1 ml per 10 grams body weight.

[3] = Escherichia coli, 0.04 mcg/ml, 37° C. overnight, read-out: amount of bacterial growth inhibition (first figure)
[4] = Escherichia coli, 0.4 mcg/ml, 37° C. overnight, read-out: amount of bacterial growth inhibition (first figure)
[5] = Escherichia coli, 4.0 mcg/ml, 37° C. overnight, read-out: amount of bacterial growth inhibition (first figure)
[6] = Escherichia coli, 40 mcg/ml, 37° C. overnight, read-out: amount of bacterial growth inhibition (first figure)
[7] = Escherichia coli, 400 mcg/ml, 37° C. overnight, read-out: amount of bacterial growth inhibition (first figure)

CO[C@@]12[C@H](COC(N)=O)C3=C(C(=O)C(C)=C(N)C3=O)N1C[C@@H]1N[C@@H]12 [Mitomycin C, mitomycin C, reference compound]
optical density at 660 nm (figure in parentheses) (Klebsiella Pneumonia; 0.04 mcg/ml): 0.52
optical density at 660 nm (figure in parentheses) (Klebsiella Pneumonia; 0.4 mcg/ml): 0.086
optical density at 660 nm (figure in parentheses) (Klebsiella Pneumonia; 4.0 mcg/ml): 0.06
optical density at 660 nm (figure in parentheses) (Klebsiella Pneumonia; 400 mcg/ml): 0.13
inhibition at 0.04 µg/mL (Klebsiella Pneumonia; Klebsiella pneumoniae, 0.04 mcg/ml, 37° C. overnight, read-out: amount of bacterial growth inhibition (first figure)): 30%
inhibition at 0.4 µg/mL (Klebsiella Pneumonia; Klebsiella pneumoniae, 0.4 mcg/ml, 37° C. overnight, read-out: amount of bacterial growth inhibition (first figure)): 82%
inhibition at 4 µg/mL (Klebsiella Pneumonia; Klebsiella pneumoniae, 4.0 mcg/ml, 37° C. overnight, read-out: amount of bacterial growth inhibition (first figure)): 87%
inhibition at 40 µg/mL (Klebsiella Pneumonia; Klebsiella pneumoniae, 40 mcg/ml, 37° C. overnight, read-out: amount of bacterial growth inhibition (first figure)): 85%
inhibition at 400 µg/mL (Klebsiella Pneumonia; Klebsiella pneumoniae, 400 mcg/ml, 37° C. overnight, read-out: amount of bacterial growth inhibition (first figure)): 75%
optical density at 660 nm (figure in parentheses) (Listeria Sp.; 0.4 mcg/ml): 0.13
optical density at 660 nm (figure in parentheses) (Listeria Sp.; 4.0 mcg/ml): 0.03
optical density at 660 nm (figure in parentheses) (Listeria Sp.; 40 mcg/ml): 0.018
optical density at 660 nm (figure in parentheses) (Listeria Sp.; 400 mcg/ml): 0.018
inhibition at 0.04 µg/mL (Listeria Sp.; Listeria, 0.04 mcg/ml, 37° C. overnight, read-out: amount of bacterial growth inhibition (first figure)): 85%
inhibition at 0.4 µg/mL (Listeria Sp.; Listeria, 0.4 mcg/ml, 37° C. overnight, read-out: amount of bacterial growth inhibition (first figure)): 95%
inhibition at 4 µg/mL (Listeria Sp.; Listeria, 4.0 mcg/ml, 37° C. overnight, read-out: amount of bacterial growth inhibition (first figure)): 93%
inhibition at 40 µg/mL (Listeria Sp.; Listeria, 40 mcg/ml, 37° C. overnight, read-out: amount of bacterial growth inhibition (first figure)): 96%
inhibition at 400 µg/mL (Listeria Sp.; Listeria, 400 mcg/ml, 37° C. overnight, read-out: amount of bacterial growth inhibition (first figure)): 96%
optical density at 660 nm (figure in parentheses) (Pseudomonas Sp.; 0.04 mcg/ml): 0.11
optical density at 660 nm (figure in parentheses) (Pseudomonas Sp.; 0.4 mcg/ml): 0.11
optical density at 660 nm (figure in parentheses) (Pseudomonas Sp.; 4.0 mcg/ml): 0.11
optical density at 660 nm (figure in parentheses) (Pseudomonas Sp.; 40 mcg/ml): 0.14
optical density at 660 nm (figure in parentheses) (Pseudomonas Sp.; 400 mcg/ml): 0.15
inhibition at 0.04 µg/mL (Pseudomonas Sp.; Pseudomonas, 0.04 mcg/ml, 37° C. overnight, read-out: amount of bacterial growth inhibition (first figure)): 78%
inhibition at 0.4 µg/mL (Pseudomonas Sp.; Pseudomonas, 0.4 mcg/ml, 37° C. overnight, read-out: amount of bacterial growth inhibition (first figure)): 78%
inhibition at 4 µg/mL (Pseudomonas Sp.; Pseudomonas, 4.0 mcg/ml, 37° C. overnight, read-out: amount of bacterial growth inhibition (first figure)): 78%
inhibition at 40 µg/mL (Pseudomonas Sp.; Pseudomonas, 40 mcg/ml, 37° C. overnight, read-out: amount of bacterial growth inhibition (first figure)): 72%
inhibition at 400 µg/mL (Pseudomonas Sp.; Pseudomonas, 400 mcg/ml, 37° C. overnight, read-out: amount of bacterial growth inhibition (first figure)): 71%
optical density at 660 nm (figure in parentheses) (Staphylococcus Sp.; 0.04 mcg/ml): 0.52
optical density at 660 nm (figure in parentheses) (Staphylococcus Sp.; 0.4 mcg/ml): 0.03
optical density at 660 nm (figure in parentheses) (Staphylococcus Sp.; 4.0 mcg/ml): 0.03
optical density at 660 nm (figure in parentheses) (Staphylococcus Sp.; 40 mcg/ml): 0.041
optical density at 660 nm (figure in parentheses) (Staphylococcus Sp.; 400 mcg/ml): 0.046
inhibition at 0.04 µg/mL (Staphylococcus Sp.; Staphylococcus, 0.04 mcg/ml, 37° C. overnight, read-out: amount of bacterial growth inhibition (first figure)): 30%
inhibition at 0.4 µg/mL (Staphylococcus Sp.; Staphylococcus, 0.4 mcg/ml, 37° C. overnight, read-out: amount of bacterial growth inhibition (first figure)): 93%
inhibition at 4 µg/mL (Staphylococcus Sp.; Staphylococcus, 4.0 mcg/ml, 37° C. overnight, read-out: amount of bacterial growth inhibition (first figure)): 93%
inhibition at 40 µg/mL (Staphylococcus Sp.; Staphylococcus, 40 mcg/ml, 37° C. overnight, read-out: amount of bacterial growth inhibition (first figure)): 91%
inhibition at 400 µg/mL (Staphylococcus Sp.; Staphylococcus, 400 mcg/ml, 37° C. overnight, read-out: amount of bacterial growth inhibition (first figure)): 90%
optical density at 660 nm (figure in parentheses) (W3100 (E. coli); 0.04 mcg/ml): 0.13
optical density at 660 nm (figure in parentheses) (W3100 (E. coli); 0.4 mcg/ml): 0.051
optical density at 660 nm (figure in parentheses) (W3100 (E. coli); 4.0 mcg/ml): 0.06
inhibition at 0.04 µg/mL (W3100 (E. coli); [3]): 74%
inhibition at 0.4 µg/mL (W3100 (E. coli); [4]): 89%
inhibition at 4 µg/mL (W3100 (E. coli); [5]): 88%
inhibition at 40 µg/mL (W3100 (E. coli); [6]): 80%
inhibition at 400 µg/mL (W3100 (E. coli); [7]): 80%
optical density at 660 nm (figure in parentheses) (WP2s (E. coli); 0.04 mcg/ml): 0.16
inhibition at 0.04 µg/mL (WP2s (E. coli); [3]): 70%
inhibition at 0.4 µg/mL (WP2s (E. coli); [4]): 86%
inhibition at 4 µg/mL (WP2s (E. coli); [5]): 84%
inhibition at 40 µg/mL (WP2s (E. coli); [6]): 85%
inhibition at 400 µg/mL (WP2s (E. coli); [7]): 85%
% ILS (P388 leukemia): 84%
Mean Survival (P388 leukemia): 21 days
mice alive on Day 30 (Ehrlich ascites; 4 mg/kg i.p.): 50%
% ILS (Ehrlich ascites; single approximate LD10 dose i.p. (M-TAG 250 mg/kg; mitomycin C 4 mg/kg), one day after implantation): 82%
WBC nadir, % of the control ([1]; 4 mg/kg i.p.): 76%
WBC depression / myelotoxicity (in words) ([1]; LD10-range dose i.p., days 3, 4, 5, 6 and 10): significantly greater than that produced by an equitoxic dose of M-TAG (P<0.01)
decrease in WBC counts ([1]; LD10 dose): 24%
activity at 1.5 h, 1 µM (in vitro): 30%
activity at 1.5 h, 5 µM (in vitro): 21%
activity at 1.5 h, 10 µM (in vitro): < 10%
toxicity in animals (in words) (bone marrow): severe bone marrow depression and gastrointestinal damage, and were delayed in onset
mice alive on day 20 (B16 melanoma): 5 out of 10
mice alive on day 10 (B16 melanoma; all vehicle-control mice died): All
approximate LD10 dose (molar) ([2]; single i.p. dose): ~12 µmol/kg
LD10 dose ([2]; single i.p. dose toxic to 10% of normal mice): ~4 mg/kg
